B1: Solute carrier family 22 member 2 (Rattus norvegicus) (protein)
chain: MSTVDDILEHIGEFHLFQKQTFFLLALLSGAFTPIYVGIVFLGFTPDHHCWSPGAAKLSQRCGWSQAEELNYTVPGLGPSDEASFLSQCMRYEVDWNQSTLDCVDPLSSLAADRNQLPLGPCEHGWVYNTPGSSIVTEFNLVCAHSWMLDLFQSVVNVGFFIGAMMIGYLADRFGRKFCLLVTILINAISGALMAISPNYAWMLVFRFLQGLVSKAGWLIGYILITEFVGLGYRRMVGICYQIAFTVGLLILAGVAYVIPNWRWLQFAVTLPNFCFLLYFWCIPESPRWLISQNKIVKAMKIIKHIAKKNGKSVPVSLQNLTPDEDAGKKLNPSFLDLVRTPQIRKHTLILMYNWFTSSVLYQGLIMHMGLAGDNIYLDFFYSALVEFPAAFIIILTIDRVGRRYPWAVSNMVAGAACLASVFIPDDLQWLKITIACLGRMGITMAYEMVCLVNAELYPTYIRNLGVLVCSSMCDIGGIITPFLVYRLTDIWMEFPLVVFAVVGLVAGALVLLLPETKGKALPETIEDAENMQRPRKKKEKRIYLQVKQADRPLS
B2: Solute carrier family 22 member 1 (Rattus norvegicus) (protein)
chain: MPTVDDVLEQVGEFGWFQKQAFLLLCLISASLAPIYVGIVFLGFTPGHYCQNPGVAELSQRCGWSQAEELNYTVPGLGPSDEASFLSQCMRYEVDWNQSTLDCVDPLSSLVANRSQLPLGPCEHGWVYDTPGSSIVTEFNLVCGDAWKVDLFQSCVNLGFFLGSLVVGYIADRFGRKLCLLVTTLVTSVSGVLTAVAPDYTSMLLFRLLQGMVSKGSWVSGYTLITEFVGSGYRRTTAILYQMAFTVGLVGLAGVAYAIPDWRWLQLAVSLPTFLFLLYYWFVPESPRWLLSQKRTTRAVRIMEQIAQKNGKVPPADLKMLCLEEDASEKRSPSFADLFRTPNLRKHTVILMYLWFSCAVLYQGLIMHVGATGANLYLDFFYSSLVEFPAAFIILVTIDRIGRIYPIAASNLVTGAACLLMIFIPHELHWLNVTLACLGRMGATIVLQMVCLVNAELYPTFIRNLGMMVCSALCDLGGIFTPFMVFRLMEVWQALPLILFGVLGLTAGAMTLLLPETKGVALPETIEEAENLGRRKSKAKENTIYLQVQTGKSSST

Key:
[1] = biological target: T1, Solute carrier family 22 member 2 (Rattus norvegicus, UniProt Q9R0W2); assay type: functional, cell-based, Xenopus laevis, Oocyte
T1 sequence (Q9R0W2 whole entry): B1 chain

[2] = biological target: T2, Solute carrier family 22 member 1 (Rattus norvegicus, UniProt Q63089); assay type: functional, cell-based, Xenopus laevis, Oocyte
T2 sequence (Q63089 whole entry): B2 chain

[3] = biological target: T1, Solute carrier family 22 member 2; assay: TP_TRANSPORTER: inhibition of TEA uptake in Xenopus laevis oocytes; assay type: functional, cell-based, Oocyte
[4] = biological target: T1, Solute carrier family 22 member 2; assay: TP_TRANSPORTER: inhibition of TEA uptake (electrogenicity) in Xenopus laevis oocytes
[5] = substrate: N=C(N)N; assay: (§1) TP_TRANSPORTER: uptake in Xenopus laevis oocytes; assay type: functional, cell-based, Oocyte
[6] = substrate: C[n+]1ccc(-c2ccccc2)cc1; assay: as §1; assay type: functional, cell-based, Oocyte
[7] = substrate: CNC(=O)c1cccnc1; assay: as §1; assay type: functional, cell-based, Oocyte
[8] = substrate: C[N+](C)(C)CCO; assay: cells, lysate or membranes named
[9] = substrate: NCCc1c[nH]cn1; assay: cells, lysate or membranes named
[10] = substrate: CC[N+](CC)(CC)CC; assay: cells, lysate or membranes named

Molecule | IC50 [1] | IC50 [2] | further results
O=C(O)CCC(=O)C(=O)O [ALPHA-KETOGLUTARIC ACID] | 700 µM | 740 µM | 
Nc1ccc(C(=O)NCC(=O)O)cc1 [AMINOHIPPURIC ACID] | 4500 µM | 1300 µM | 
C[C@]12C[C@H](O)[C@H]3[C@@H](CCC4=CC(=O)CC[C@@]43C)[C@@H]1CC[C@@H]2C(=O)CO [CORTICOSTERONE] | 4 µM | 151 µM | 
CC[n+]1c(CC2C=C(C)N=C(c3ccccc3)N2C)ccc2ccccc21 (stereo unspecified) [Cyanine-863] | 2.56 µM | 0.51 µM | 
CNCCCN1c2ccccc2CCc2ccccc21 [DESIPRAMINE] | 10 µM |  | 
N=C(N)N [GUANIDINE] | 171 µM | 4470 µM | 
CC(C)C(c1ccccc1)C(O)CC[N+]1(C)CCCCC1 (stereo unspecified) [MEPIPERPHENIDOL BROMIDE] | 474 µM | 7.1 µM | 
COc1cc(C(O)CNC(C)C)ccc1O (stereo unspecified) [METIPRENALINE] |  | 37 µM | 
CCCN(CCC)S(=O)(=O)c1ccc(C(=O)O)cc1 [PROBENECID] | 1700 µM | 1640 µM | 
CCN(CC)CCNC(=O)c1ccc(N)cc1 [PROCAINAMIDE] | 445 µM |  | 
C=C[C@H]1C[N@@]2CC[C@H]1C[C@@H]2[C@@H](O)c1ccnc2ccc(OC)cc12 [QUINIDINE] | 14.6 µM |  | 
C=C[C@H]1C[N@@]2CC[C@H]1C[C@H]2[C@H](O)c1ccnc2ccc(OC)cc12 [QUININE] |  |  | Ki [3]: 55 µM
CCCC[N+](CCCC)(CCCC)CCCC [TETRABUTHYLAMMONIUM] |  |  | Ki [4]: 12 µM
C[N+](C)(C)C [TETRAMETHYLAMMONIUM] | 630 µM |  | 
CCC[N+](CCC)(CCC)CCC [TETRAPROPYLAMMONIUM] | 6.2 µM | 11.3 µM | 
B1 |  |  | Km [5]: 172 µM; Km [6]: 17 µM; Km [7]: 245 µM; Km [8]: 604 µM; Km [9]: 278 µM; Km [10]: 91 µM
B2 |  |  | Km [5]: 1660 µM; Km [9]: 300 µM
